# Assay results reported in patent US9345739B2, “Methods and compositions for the treatment of proteinuric diseases” (The General Hospital Corporation, priority 2007, dated 2016).
# Entries after “also recorded” stand apart in the source; their conditions may differ.
# Experiments:
# [1] = tested on: β3 integrin; assay: Active β3 integrin (AP5 staining) in LPS treated cultured podocytes; type: cell-based, mouse; details: disruption of lipid rafts
# Excerpt: Cultured podocytes were immunolabeled as described previously^8.
# [2] = tested on: cdc42; assay: GTPase activity assay in isolated glomeruli (cdc42); type: in vivo, mouse; details: wild type mice co-injected with LPS and RGDfV (every 8 hours for 24 hours)
# Experimental: (§1) Rho family small GTPase activity in glomerular lysates was measured by Rho/Rac/Cdc42 activation assay kit (Cell Biolabs, INC.) following the manufacturer's protocol. Isolated glomeruli from wild type and uPAR^−/− mice, some of them treated with LPS (t=0) and with RGDfV (SEQ ID NO: 1) every 8 hours for 24 hours were obtained by standard sieve technique^25. 2 mg of glomerular lysate were used to prepare for positive or negative control by incubating with 10 μl of GTPγS or GDP respectively. For small GTPase pull-down assay, the same amount (2 mg) of glomerulus lysates from different treatments were incubated with 40 μl of Rhotekin RBD or PAK PBD agarose bead slurry for 1 h at 4° C. After washing 3 times with 1× assay buffer, beads were harvested and resuspended in LDS sample buffer. Samples were heated for 10 min at 70° C. before SDS-PAGE. After electrophoresis and protein transfer, the membranes were blocked with 5% milk, and incubated with anti-Rho, anti-Rac, and anti-Cdc42 antibodies for 1 h, followed by second antibody incubation and detection with ECL (Pierce). For loading control, 100 μg of glomerular lysates from different treatments were applied and immunoblotted with the same anti-Rho, anti-Cdc42 and anti-Rac antibodies as used above.
# [3] = tested on: Rac1; assay: GTPase activity assay in isolated glomeruli (Rac1); type: in vivo, mouse; details: wild type mice co-injected with LPS and RGDfV (every 8 hours for 24 hours)
# Experimental: as §1
# [4] = tested on: cultured podocytes; assay: Multiwell Boyden chamber assay, random podocyte migration on vitronectin; type: cell-based, mouse; details: wild type podocytes, treatment for 24 h
# Experimental: Podocyte migration was analyzed using a 12-well chemotaxis chamber (Neuro Probe) according to the manufacturer's protocol. In brief, differentiated podocytes were treated with 50 μg/ml of LPS or PAN for 24 h and then harvested for the migration assay. Bottom plates were coated with vitronectin or type I collagen, while upper plates were loaded with equal number of cells (5×10^4) suspended in medium. The chamber was incubated at 37° C. for 4 h before the membrane was taken out and stained with diamidino phenylindole (DAPI). The average number of migrated cells was counted in four fields in six independent experiments.
# [5] = target: T1, αvβ3 integrin (Mus musculus, UniProt O54890+P43406); type: in vivo; details: mice, LPS only (200 μg intraperitoneally), urine 24 h after LPS
# T1 construct: from tissue; host or cells: living wild type (C57BL/6, 'B6') mice
# T1 sequence (P43406 31-1044): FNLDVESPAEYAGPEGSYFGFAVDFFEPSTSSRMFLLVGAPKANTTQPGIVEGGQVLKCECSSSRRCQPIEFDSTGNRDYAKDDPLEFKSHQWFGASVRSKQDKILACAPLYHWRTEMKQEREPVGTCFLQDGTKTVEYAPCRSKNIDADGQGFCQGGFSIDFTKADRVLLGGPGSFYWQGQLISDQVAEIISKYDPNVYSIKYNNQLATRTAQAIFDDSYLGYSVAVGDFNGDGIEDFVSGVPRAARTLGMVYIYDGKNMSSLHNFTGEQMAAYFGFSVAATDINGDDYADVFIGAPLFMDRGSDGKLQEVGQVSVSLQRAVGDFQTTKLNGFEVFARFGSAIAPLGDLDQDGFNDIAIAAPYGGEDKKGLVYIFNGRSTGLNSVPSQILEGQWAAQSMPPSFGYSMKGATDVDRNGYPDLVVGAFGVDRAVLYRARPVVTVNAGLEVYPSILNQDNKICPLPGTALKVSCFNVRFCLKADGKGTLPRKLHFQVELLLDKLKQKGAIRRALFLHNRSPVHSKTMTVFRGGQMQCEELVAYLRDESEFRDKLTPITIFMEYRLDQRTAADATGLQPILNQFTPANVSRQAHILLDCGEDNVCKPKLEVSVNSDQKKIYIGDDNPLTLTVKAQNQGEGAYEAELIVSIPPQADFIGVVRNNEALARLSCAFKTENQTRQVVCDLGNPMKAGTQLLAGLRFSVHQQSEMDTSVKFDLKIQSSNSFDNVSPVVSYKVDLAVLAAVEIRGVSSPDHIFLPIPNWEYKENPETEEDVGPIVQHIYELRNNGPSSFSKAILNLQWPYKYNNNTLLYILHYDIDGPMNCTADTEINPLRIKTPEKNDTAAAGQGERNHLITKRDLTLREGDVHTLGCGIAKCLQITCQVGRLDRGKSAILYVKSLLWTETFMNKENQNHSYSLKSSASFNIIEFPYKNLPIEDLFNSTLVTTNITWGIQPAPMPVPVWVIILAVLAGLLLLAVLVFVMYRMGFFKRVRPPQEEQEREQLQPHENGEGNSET
# T1 sequence (O54890 26-787): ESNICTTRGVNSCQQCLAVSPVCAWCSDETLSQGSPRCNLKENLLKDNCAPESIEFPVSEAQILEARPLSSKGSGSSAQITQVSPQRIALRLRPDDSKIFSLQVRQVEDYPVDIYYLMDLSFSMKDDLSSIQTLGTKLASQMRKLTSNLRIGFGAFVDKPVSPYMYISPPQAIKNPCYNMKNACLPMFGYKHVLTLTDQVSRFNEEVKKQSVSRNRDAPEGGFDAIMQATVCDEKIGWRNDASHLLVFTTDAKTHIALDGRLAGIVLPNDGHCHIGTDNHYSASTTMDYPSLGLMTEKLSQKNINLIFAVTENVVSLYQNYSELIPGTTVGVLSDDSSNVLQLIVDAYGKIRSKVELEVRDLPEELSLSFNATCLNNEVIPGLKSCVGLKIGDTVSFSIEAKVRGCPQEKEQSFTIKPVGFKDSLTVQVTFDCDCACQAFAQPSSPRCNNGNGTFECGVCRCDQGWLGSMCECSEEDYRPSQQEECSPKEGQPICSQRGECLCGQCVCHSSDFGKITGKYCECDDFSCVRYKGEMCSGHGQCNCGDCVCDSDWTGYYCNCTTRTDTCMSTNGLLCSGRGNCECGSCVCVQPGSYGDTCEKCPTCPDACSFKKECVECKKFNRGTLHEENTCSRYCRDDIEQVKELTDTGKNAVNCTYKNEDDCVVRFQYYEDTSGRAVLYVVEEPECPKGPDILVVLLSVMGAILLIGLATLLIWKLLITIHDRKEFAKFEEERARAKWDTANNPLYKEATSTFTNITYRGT
# Experimental: Immediately after the first injection, 200 μg of LPS was injected intraperitoneally into each mouse to induce proteinuria. 24 h after LPS injection, urine was collected for Braford assay.
# [6] = tested on: wild type and uPAR−/− mice; assay: LPS mouse model of proteinuria in wild type and uPAR−/− mice, urine Bradford assay; type: in vivo; parameters: unit not given beside the values; details: LPS injection
# Excerpt: All animal studies were approved by the Subcommittee on Research Animal Care of the Massachusetts General Hospital. uPAR^−/− mice and uPA^−/− mice on a mixed background of 75% C57BL/6 and 25% 129 Swiss were obtained from University of Leuven, Belgium; Vn^−/− mice (C57BL/6) were obtained from Dr. David Ginsburg, University of Michigan; β3 integrin^−/− mice (C57BL/6) were obtained from Dr. Raghuram Kalluri, Boston. C57BL/6 and 129 Swiss mice were purchased from Jackson Laboratory (Bar Harbor). The LPS mouse model was utilized as previously described^9. The induction of B7-1 was used as a control for the effectiveness of LPS. Rat PAN nephrosis model was set up by a single intraperitoneal injection of puromycin (15 mg/100 g of body weight, Sigma-Aldrich) into Sprague-Dawley rats as described before^27. NZB/W F1 mice were purchased from the Jackson Laboratory and analyzed after 20 weeks when proteinuria and Lupus glomerulonephritis were present. As diabetic nephropathy rat model, we used Sprague Dawley rats treated with Streptozotocin. Hyperglycaemic state was induced by an intraperitoneal Streptozotocin injection (50-70 mg/kg body weight, in citrate buffer 10 mmol/L, pH 4.5). The hyperglycaemic state developed within 48 h and was maintained during the lifetime of the animals. No insulin administration was required. Glycosuria was evaluated with test strips of the Uriscan TM (YD Diagnostics, VWR, Montréal, QC, Canada) and glycaemia with the AccuSoft Monitoring System (Roche Diagnostics, Laval, QC, Canada). At the end of the study, glycaemia values were 4.3±0.53 and 8.5±0.7 mmol/L for 3 months-old and 12 months-old normoglycaemic animals, respectively, and 21.2±0.9 and 33.9±4.0 mmol/L for 3 months-old and 12 months-old diabetic animals, respectively.
# uPAR-cDNA plasmids were introduced into uPAR^−/− mouse using the TransIT in vivo gene delivery system (Mims) as described previously^32,8. The following cDNAs and vector constructs were used for gene delivery: uPAR; mutated uPAR D262A^38 (kind gift from Y Wei and H A Chapman, University of California, San Francisco); β3 integrin and the constitutively active form of β3 integrin, D616-690 (β3Δ616-690)^48; Podocin promoter vector p2.5^33 (a kind gift from Dr. L B Holzman, University of Michigan) for Pod-uPAR; ICAM-2 promoter vector^34 for ICAM-2-uPAR. Tissues were analyzed for expression as described previously^8.
# [7] = tested on: cultured podocytes; assay: Scrape wound (wound healing) assay, directed podocyte motility; type: cell-based, mouse; details: for directed podocyte motility into the wound track: wild type podocytes, vitronectin-coated surface, treatment for 24 h
# Experimental: To study the directional movement of podocytes, a wound healing assay was performed. Briefly, podocytes were seeded on Vn or type I collagen coated cover-slips and cultured for 10 days at 37° C. before treated with LPS or PAN for 12-48 h. To create a scrape wound approximately 0.1 cm wide, the narrow end of a P1000 pipette tip was perpendicularly pushed through the monolayer. Then, cover-slips were washed twice with PBS and incubated in medium. After incubation, cells were fixed with 2% PFA and stained with DAPI for analysis. The cell migratory distance was calculated by averaging the distance from the wound edge to the maximally migrated cell in five distinct border zones.
# [8] = tested on: uPAR; assay: Induction of uPAR in cultured podocytes, relative quantification; type: cell-based, mouse
# [9] = target: β3 integrin on cultured mouse podocytes (mouse) (UniProt O54890); assay: flow cytometry, LPS treated mouse podocytes, 5 µg/ml AP5, 1.0 mM Ca2+
# [10] = target: β3 integrin on cultured mouse podocytes (mouse) (UniProt O54890); assay: flow cytometry, LPS treated mouse podocytes, 5 µg/ml AP5, 2.0 mM Ca2+
# [11] = target: β3 integrin on cultured mouse podocytes (mouse) (UniProt O54890); assay: flow cytometry, LPS treated mouse podocytes, 5 µg/ml AP5, 0.1 mM Ca2+
# [12] = target: β3 integrin on cultured mouse podocytes (mouse) (UniProt O54890); assay: flow cytometry, LPS treated mouse podocytes, 5 µg/ml AP5, 0.4 mM Ca2+
# [13] = target: β3 integrin on cultured mouse podocytes (mouse) (UniProt O54890); assay: flow cytometry, LPS treated mouse podocytes, 5 µg/ml AP5, 1 mM EDTA
# [14] = target: T1, αvβ3 integrin; assay: Recovery of already existing LPS-induced proteinuria, urine Bradford assay; type: in vivo; details: B6 mice, LPS at 0 and 24 h; 25 mg/kg body weight through tail vein 48 h after first injection
# Experimental: B6 mice are injected twice (0, 24 h) with LPS to induce and maintain proteinuria. 48 h after first injection, S247 (n=6) is administered (25 mg/kg body weight) through tail vein. Control (n=5) received the same amount of PBS. 0, 48 h, 66 h urine was collected for Braford assay.
molecule,measurement,setting,value
Methyl-β-cyclodextrin,activation of β3 integrin in response to LPS (AP5 staining),[1],abrogated
cyclo-[Arg-Gly-Asp-D-Phe-Val] [cyclo-RGDfV],induction of active cdc42 in glomeruli,[2],inhibited
same,induction of active Rac1 in glomeruli,[3],inhibited
lipopolysaccharide [LPS],podocyte migration (migrated podocytes),[4],72±5.5
same,proteinuria (urine Bradford assay),[5],0.924±0.1055
same,proteinuria (urine Bradford assay),[6]; uPAR−/− mice reconstituted with uPAR-cDNA,0.92±0.46
same,proteinuria (urine Bradford assay),[6]; uPAR−/− mice which received control plasmids,0.26±0.15
same,proteinuria (urine Bradford assay),[6]; uPAR−/− mice,0.32±0.14
same,proteinuria (urine Bradford assay),[6]; wild type mice,0.82±0.32
same,directed podocyte motility into the wound track,[7],85.34±4.1
same,Relative quantification of uPAR induction,[8],0.49±0.06
"CN(C)c1ncnc2c1ncn2[C@@H]1O[C@H](CO)[C@@H](N)[C@H]1O [PAN, puromycin aminonucleoside]",podocyte migration (migrated podocytes),[4],67±4.9
same,directed podocyte motility into the wound track,[7],79.31±3.72
same,Relative quantification of uPAR induction,[8],0.61±0.10
urokinase,podocyte directional migration / motility,"[7]; cultured podocytes, addition of external urokinase",did not alter; also recorded: did not modify
anti-active β3 integrin antibody AP5 (GTI),Fluorescent intensity units (fluorescent intensity units),[9],535
same,Fluorescent intensity units (fluorescent intensity units),[10],312
same,Fluorescent intensity units (fluorescent intensity units),[11],3060
same,Fluorescent intensity units (fluorescent intensity units),[12],1640
same,Fluorescent intensity units (fluorescent intensity units),[13],3020
O=C(O)C[C@H](NC(=O)CNC(=O)c1cncc(NC2=NCC(O)CN2)c1)c1cc(Cl)cc(Br)c1O (stereo partly drawn) [S247],already existing proteinuria; urinary protein at timepoint 66 h,[14],Reduction of urinary protein
